Results as given in patent US11103562B2, “Composition comprising alkaline phosphatase for use in the treatment of arthritides” (AMRIF BV, priority 2017, dated 2021).
Entries after “also recorded” stand apart in the source; their conditions may differ.

Legend:
arthritic rats = test: Knee swelling in rats with mBSA antigen-induced arthritis; assay type: in vivo, rat
Procedure: (§1) Experiments were performed using a rat model for RA as published by Chandruputla et al. (BioMed Int, 2015) to show the effects of recombinant human alkaline phosphatase (hRESCAP) on RA. hRESCAP was compared with MTX used as a positive control. The antigen-induced rat model uses two subcutaneous immunizations with a mixture of methylated bovine serum albumin (mBSA), CFA (complete Freund's adjuvant antigen) and CBP (custom Bordetella pertussis antigen) and intra-articular injections of mBSA on one side knee and saline (negative control) on the counter knee. Immunohistochemical (IHC) analysis specifically focussed on infiltration with macrophages and knee swelling is followed over time after therapeutic treatment with MTX, or hRESCAP.
(§2) In the rat model, RA is induced in the right knee (RA knee), the contralateral left knee serves as a internal control (control knee). The model allows various options for therapeutic interventions, either before intra-articular injections or during boosts injections with mBSA. Two hours prior to AP administration, rats received a dose of levamisole (50 mg/kg, s.c.). For comparison, arthritic rats received treatment with methotrexate (1 mg/kg, i.p.).
(§3) All rats (except healthy) were immunized and arthritis was induced via 1× or 4× intra-articular (i.a) mBSA injections, 4 or 5 days apart in the arthritic (right) knee, the contralateral (left, non-arthritic) knee serving as control knee. For therapeutic interventions, AP (human recombinant placenta AP, TNO, Zeist, The Netherlands) was administered subcutaneously (s.c.) at a dose of 700 U/kg (≈200 μg), MTX (VU University Medical Centers' Pharmacy) was administered intra-peritoneal (i.p.) at two dosages: 0.3 mg/kg (low dose) and 1.0 mg/kg (high dose). The rats were divided in 8 groups, based on different treatments and treatment schedules. In a prophylactic setting, two rats received AP twice prior to intra-articular (i.a.) arthritis induction and four rats received AP twice prior to intra-articular and 4× PBS in between i.a. injections. In the treatment groups, arthritic rats were administered AP twice or 4× after arthritis induction, either as standalone therapy or in combination with low or high dose MTX. Control rats received 500 μL of PBS (i.p.). […] At the end of study, all rats were sacrificed and tissues were excised for further processing and various analyses.

[1] = system: ED1+ and ED2+ synovial macrophages; test: Synovial macrophage infiltration (ED1/ED2 immunohistochemistry) in knees of rats with mBSA antigen-induced arthritis; assay type: in vivo, rat
Procedure: as §1, §2
At the end of the experiment, rats were sacrificed and knees were decalcified and processed for IHC analysis of synovial macrophage infiltration, including 2 rat macrophage antibodies; ED1 (homolog of human CD68) and ED2 (homolog of human CD163, a proposed marker for human M2 anti-inflammatory macrophages). IHC analysis of ED1 and ED2 macrophages was performed in multiple quadrants of synovial tissue, as described by Chandruputla et al (BioMed Int, 2015). Macrophage counting included synovial lining layer (SL 1-10) and synovial sublining layers (SL 1-20).
as §3
The arthritic and contralateral knees from all rats were dissected in toto and fixed for 7 days at 4° C. in 10% freshly made paraformaldehyde in PBS with 2% sucrose (pH=7.3) prior to decalcification in osteosoft (101728, Merck, Germany) for ˜2.5 weeks at room temperature. Thereafter, knees were embedded in paraffin. Sections of 5 μm were cut through the centre of the joint in longitudinal direction and stained with haematoxylin and eosin (HE) to assess the degree of inflammation in synovial tissue. Liver and spleen sections from all rats were dissected and fixed in 4% paraformaldehyde for 24 h before embedding in paraffin. Sections of 5 μm were cut and stained initially with HE and then for macrophages Staining for macrophages with ED1 (homologous to human CD68), and ED2 (homologous to human CD163, a marker for M2 anti-inflammatory macrophages), or isotype control antibody was performed. Images were captured using a Leica 4000B microscope and Leica digital camera DC500 (Microsystems B. V. Rijswijk, The Netherlands). […]

[2] = Tolerability of therapeutic interventions in arthritic rats; assay type: in vivo
Procedure: as §3

macrophages = conditions: rat, in vivo
Procedure: At the end of the treatment period, arthritic rats receiving 4× AP, 4× AP/low dose MTX, 4× AP/high dose MTX treatment, and untreated rats, were administered with [^18F]fluoro-PEG-folate tracer. Sixty minutes after tracer administration, rats were sacrificed. Low and high dose MTX treated arthritic rats were sacrificed without tracer administration. Upon sacrificing, all rats were excised and knees, blood and various internal organs were collected, rinsed, dipped dry, weighed and the amount of radioactivity determined using an LKB 1282 Compugamma CS gamma counter (LKB, Wallac, Turku, Finland). Results for tracer uptake in the various tissues were expressed as percentage of the injected dose per gram tissue (%ID/g).

[3] = cited from earlier work; for plasma residence time: in vivo

CN(Cc1cnc2nc(N)nc(N)c2n1)c1ccc(C(=O)N[C@@H](CCC(=O)O)C(=O)O)cc1 [MTX, Methotrexate, reference compound]
swelling of the mBSA-injected right knee (arthritic rats; prophylactic and therapeutic AP treatment or MTX treatment, versus positive control): Reduced swelling
swelling of the non-treated left knee (arthritic rats; versus positive control treatment): swelling is reduced
effect of the two MTX doses on the number of ED1 macrophages in the arthritic knee ([1]; MTX 0.3 mg/kg versus 1.0 mg/kg): identical effect
ED1+ synovial macrophage infiltration in arthritic knee (in words) ([1]; therapeutic treatment, 4× after first i.a. and in between boosts, AP 700 U/kg, MTX 1 mg/kg): even more reduced macrophage ED1+ counts; also recorded: very much reduced
changes in body weight [2]: nor were significant changes in the body weight observed

[^18F]fluoro-PEG-folate [reference compound]
clearance of the tracer from plasma (macrophages): rapidly cleared from plasma

B1: intestinal isoenzyme: intestinal alkaline phosphatase isoenzyme, tissue specific ectophosphatase (protein, UniProt P09923 20-503, looked up)
Intestinal-type alkaline …: VIPAEEENPAFWNRQAAEALDAAKKLQPIQKVAKNLILFLGDGLGVPTVTATRILKGQKNGKLGPETPLAMDRFPYLALSKTYNVDRQVPDSAATATAYLCGVKANFQTIGLSAAARFNQCNTTRGNEVISVMNRAKQAGKSVGVVTTTRVQHASPAGTYAHTVNRNWYSDADMPASARQEGCQDIATQLISNMDIDVILGGGRKYMFPMGTPDPEYPADASQNGIRLDGKNLVQEWLAKHQGAWYVWNRTELMQASLDQSVTHLMGLFEPGDTKYEIHRDPTLDPSLMEMTEAALRLLSRNPRGFYLFVEGGRIDHGHHEGVAYQALTEAVMFDDAIERAGQLTSEEDTLTLVTADHSHVFSFGGYTLRGSSIFGLAPSKAQDSKAYTSILYGNGPGYVFNSGVRPDVNESESGSPDYQQQAAVPLSSETHGGEDVAVFARGPQAHLVHGVQEQSFVAHVMAFAACLEPYTACDLAPPACTTD
plasma residence time [3]: short plasma residence time

B2: placental ALP: human placental alkaline phosphatase isoenzyme, fully glycosylated tissue specific ectophosphatase (native or recombinant) (protein, UniProt P05187 23-506, looked up)
Alkaline phosphatase, …: IIPVEEENPDFWNREAAEALGAAKKLQPAQTAAKNLIIFLGDGMGVSTVTAARILKGQKKDKLGPEIPLAMDRFPYVALSKTYNVDKHVPDSGATATAYLCGVKGNFQTIGLSAAARFNQCNTTRGNEVISVMNRAKKAGKSVGVVTTTRVQHASPAGTYAHTVNRNWYSDADVPASARQEGCQDIATQLISNMDIDVILGGGRKYMFRMGTPDPEYPDDYSQGGTRLDGKNLVQEWLAKRQGARYVWNRTELMQASLDPSVTHLMGLFEPGDMKYEIHRDSTLDPSLMEMTEAALRLLSRNPRGFFLFVEGGRIDHGHHESRAYRALTETIMFDDAIERAGQLTSEEDTLSLVTADHSHVFSFGGYPLRGSSIFGLAPGKARDRKAYTVLLYGNGPGYVLKDGARPDVTESESGSPEYRQQSAVPLDEETHAGEDVAVFARGPQAHLVHGVQEQTFIAHVMAFAACLEPYTACDLAPPAGTTD
plasma residence time [3]: 6 to 7 days
half-life (T1/2) of clearance out of circulation ([3]; pregnant women): 170 h
